In PubChem BioAssay (NCI):
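Briefly, cells in 96-well plates were exposed to five compound concentrations for 48 h, and endpoints were estimated by linear interpolation. TGI marks complete inhibition of growth.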

Assays:
Experiment in all cases: inhibition of tumour cell growth, NCI panel, 48 h
[1] = test system: 786-0 renal
[2] = test system: A498 renal
[3] = test system: A549 NSCLC
[4] = test system: ACHN renal
[5] = test system: BT-549 breast
[6] = test system: CAKI-1 renal
[7] = test system: CCRF-CEM leukemia
[8] = test system: COLO 205 colon
[9] = test system: DU-145 prostate
[10] = test system: EKVX NSCLC
[11] = test system: HCC-2998 colon
[12] = test system: HCT-116 colon
[13] = test system: HCT-15 colon
[14] = test system: HL-60(TB) leukemia
[15] = test system: HOP-62 NSCLC
[16] = test system: HOP-92 NSCLC
[17] = test system: HS 578T breast
[18] = test system: HT29 colon
[19] = test system: IGROV1 ovarian
[20] = test system: K-562 leukemia
[21] = test system: KM12 colon
[22] = test system: LOX IMVI melanoma
[23] = test system: M14 melanoma
[24] = test system: MALME-3M melanoma
[25] = test system: MCF7 breast
[26] = test system: MDA-MB-231 breast
[27] = test system: MDA-MB-435
[28] = test system: MDA-N
[29] = test system: MOLT-4 leukemia
[30] = test system: NCI-H226 lung
[31] = test system: NCI-H23 lung
[32] = test system: NCI-H460 lung
[33] = test system: NCI-H522 lung
[34] = test system: NCI/ADR-RES ovarian
[35] = test system: OVCAR-3 ovarian
[36] = test system: OVCAR-4 ovarian
[37] = test system: OVCAR-5 ovarian
[38] = test system: OVCAR-8 ovarian
[39] = test system: PC-3 prostate
[40] = test system: RPMI-8226 leukemia
[41] = test system: RXF 393 renal
[42] = test system: SF-268 CNS
[43] = test system: SF-295 CNS
[44] = test system: SF-539 CNS
[45] = test system: SK-MEL-2 melanoma
[46] = test system: SK-MEL-28 melanoma
[47] = test system: SK-MEL-5 melanoma
[48] = test system: SK-OV-3 ovarian
[49] = test system: SN12C renal
[50] = test system: SNB-19 CNS
[51] = test system: SNB-75 CNS
[52] = test system: SR leukemia
[53] = test system: SW-620 colon
[54] = test system: T-47D breast
[55] = test system: TK-10 renal
[56] = test system: U251 CNS
[57] = test system: UACC-257 melanoma
[58] = test system: UACC-62 melanoma
[59] = test system: UO-31 renal

For `O=C1Cc2cn[nH]c2-c2ccccc2N1`, the TGI [1] was > 100 µM, the TGI [2] was > 100 µM and the TGI [3] was > 64.2 µM. For the same compound, the TGI [4] was > 55.7 µM, the TGI [5] was 61.5 µM and the TGI [6] was > 35.2 µM. For the same compound, the TGI [7] was 53.1 µM, the TGI [8] was > 64 µM and the TGI [9] was > 100 µM. The TGI [10] was 95.4 µM, the TGI [11] was 67.3 µM and the TGI [12] was > 83.5 µM. For the same compound, the TGI [13] was > 63.3 µM, the TGI [14] was > 78.3 µM and the TGI [15] was > 100 µM. The TGI [16] was > 30.7 µM, the TGI [17] was > 100 µM and the TGI [18] was > 100 µM. For the same compound, the TGI [19] was > 100 µM, the TGI [20] was 56.6 µM and the TGI [21] was > 67.3 µM. The TGI [22] was 33.6 µM, the TGI [23] was > 55.2 µM and the TGI [24] was > 69.7 µM. The TGI [25] was > 100 µM, the TGI [26] was > 62 µM and the TGI [27] was 59.7 µM. The TGI [28] was > 100 µM, the TGI [29] was 49.7 µM and the TGI [30] was > 100 µM. For the same compound, the TGI [31] was > 100 µM, the TGI [32] was > 69.8 µM and the TGI [33] was 65.8 µM. The TGI [34] was > 100 µM, the TGI [35] was 37.5 µM and the TGI [36] was > 75.1 µM. The TGI [37] was > 57.5 µM, the TGI [38] was > 100 µM and the TGI [39] was > 100 µM. For the same compound, the TGI [40] was 66.1 µM, the TGI [41] was 72.3 µM and the TGI [42] was > 100 µM. For the same compound, the TGI [43] was > 100 µM, the TGI [44] was > 100 µM and the TGI [45] was > 83.8 µM. The TGI [46] was > 100 µM, the TGI [47] was > 59.7 µM and the TGI [48] was > 100 µM. For the same compound, the TGI [49] was > 63.9 µM, the TGI [50] was > 100 µM and the TGI [51] was > 100 µM. The TGI [52] was 71.8 µM, the TGI [53] was 32.4 µM and the TGI [54] was > 100 µM. For the same compound, the TGI [55] was 91.5 µM, the TGI [56] was > 61.6 µM and the TGI [57] was > 60.5 µM. The TGI [58] was 63.5 µM and the TGI [59] was > 100 µM.

In the case of `Cc1[nH]c(-c2ccccc2)c2nc(N(C)C)oc(=O)c12`, the TGI [1] is reported as > 100 µM, the TGI [2] is reported as > 100 µM and the TGI [3] is reported as > 100 µM. For the same compound, the TGI [4] was > 100 µM, the TGI [5] was > 100 µM and the TGI [6] was > 100 µM. For the same compound, the TGI [7] was > 100 µM, the TGI [8] was > 100 µM and the TGI [9] was > 100 µM. The TGI [10] was > 100 µM, the TGI [11] was > 100 µM and the TGI [12] was > 100 µM. For the same compound, the TGI [13] was > 100 µM, the TGI [14] was > 100 µM and the TGI [15] was > 100 µM. For the same compound, the TGI [16] was > 100 µM, the TGI [17] was > 100 µM and the TGI [18] was > 100 µM. For the same compound, the TGI [19] was > 100 µM, the TGI [20] was > 100 µM and the TGI [21] was > 100 µM. For the same compound, the TGI [22] was > 100 µM, the TGI [23] was > 100 µM and the TGI [24] was > 100 µM. The TGI [25] was > 100 µM, the TGI [26] was > 100 µM and the TGI [27] was > 100 µM. For the same compound, the TGI [28] was > 100 µM, the TGI [29] was > 100 µM and the TGI [30] was > 100 µM. For the same compound, the TGI [31] was > 100 µM, the TGI [32] was > 100 µM and the TGI [33] was > 100 µM. For the same compound, the TGI [34] was > 100 µM, the TGI [36] was > 100 µM and the TGI [37] was > 100 µM. For the same compound, the TGI [38] was > 100 µM, the TGI [39] was > 100 µM and the TGI [40] was > 100 µM. For the same compound, the TGI [41] was > 100 µM, the TGI [42] was > 100 µM and the TGI [43] was > 100 µM. For the same compound, the TGI [44] was > 100 µM, the TGI [45] was > 100 µM and the TGI [46] was > 100 µM. The TGI [47] was > 100 µM, the TGI [48] was > 100 µM and the TGI [49] was > 100 µM. The TGI [50] was > 100 µM, the TGI [51] was > 100 µM and the TGI [52] was > 100 µM. For the same compound, the TGI [53] was > 100 µM, the TGI [54] was > 100 µM and the TGI [55] was > 100 µM. The TGI [56] was > 100 µM, the TGI [57] was > 100 µM and the TGI [58] was > 100 µM. The TGI [59] was > 100 µM.
